Test results taken from patent US20080287396A1, “Phosphonated Fluoroquinolones, Antibacterial Analogs Thereof, and Methods for the Prevention and Treatment of Bone and Joint Infections” (TARGANTA THERAPEUTICA INC., priority 2005, published 2008).
“Also recorded” adds a separate entry of the source.

Experiments:
S. aureus ATCC 13709 = assay: Prophylactic model of bone infection in rats; assay type: in vivo, rat; conditions: for prophylactic effect in rat model of bone infection, in words: Table 4 and FIGS. 6-8, doses as in Table 4
Summary of the method: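 Female CD rats (n=5/group) given intra-tibial 5% sodium morrhuate then S. aureus (ca. 5×10^5 CFU/rat), hole sealed with dental cement. Prodrugs given as single IV bolus in 0.9% saline at various times before infection; parent at molar equivalent dose. Tibiae harvested 24 h postinfection; Log CFU/g bone, detection limit 2 Log CFU/g.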

[1] = Levels of prodrug 52 in rat plasma in vivo
Method: Female CD rats (age, 57 to 70 days; n=3/group; Charles River, St-Constant, Canada) were administered a single bolus intravenous (tail vein) dose of compound 52 (dissolved in 0.85% NaCl) at 15.8 mg/kg of body weight, corresponding to 10 mg/kg of moxifloxacin 3. Animals were sacrificed by CO2 inhalation at the specified time points after i.v. dosing to evaluate the levels of 52 in plasma. Blood samples were collected by cardiac puncture and transferred in BD Vacutainer tubes (green cap) for plasma isolation. The plasma components were obtained by centrifugation of these samples and they were stored at −80° C. until analysis.
For the dosage of prodrug in the plasma, the standards and QCs were prepared (in duplicate) as follows: to 100 μl of blank plasma was added a spiking solution (5 μl) of the prodrug (52 in water). The range of the standards (8 levels) was from 0.06 to 25 μM and the QC levels were 0.18, 1.87 and 18.75 μM. Four samples of blank plasma without prodrug were also prepared. […]
Moxifloxacin 3 resulting from the cleavage of the prodrug was analyzed with the same method on an Agilent 1100™ series LC/MSD Trap, The extracted sample was injected into a Zorbax™ SB-Aq column (2×30 mm, 3.5μ), using 0.1% formic acid in water(aq) and 0.1% formic acid in acetonitrile(org) as the mobile phase, at a flow rate of 0.3 ml/min. […]

Row | clearance from the blood circulation of rats, in words ([1]; FIG. 5) | half-life of clearance from the circulation ([1]; rat plasma, IV bolus 15.8 mg/kg, 5 min to 24 h) | SMILES | bacterial titer compared with untreated group (S. aureus ATCC 13709; 15.8 mg/kg IV 5, 10, 15 and 20 days before infection (FIG. 6)) | Measured bacterial titer (Log CFU/g of bone) Test compound (S. aureus ATCC 13709; 15.8 mg/kg IV, 2 days prior to infection, 24 h postinfection) | bacterial titer compared with untreated group (S. aureus ATCC 13709; 32 mg/kg IV 7, 14, 21 and 28 days prior to infection (FIG. 7)) | prophylactic effect in rat model of bone infection, in words (S. aureus ATCC 13709) | bacterial titer compared with untreated group (S. aureus ATCC 13709; 17.3 mg/Kg IV 48 h prior to infection (FIG. 8)) | Measured bacterial titer (Log CFU/g of bone) Test compound (S. aureus ATCC 13709; 20 mg/kg IV, 3 days prior to infection)
1 | rapid clearance | less than one hour | COc1c(N2C[C@@H]3CCCN[C@@H]3C2)c(F)cc2c(=O)c(C(=O)OCC(=O)NC(P(=O)(O)O)P(=O)(O)O)cn(C3CC3)c12 [Compound 52, (1,1-Bisphosphonomethylcarbamoyl)methyl 1-cyclopropyl-6-fluoro-1,4-dihydro-7-((4aS,7aS)-octahydropyrrolo[3,4-b]pyridin-6-yl)-8-methoxy-4-oxoquinoline-3-carboxylate] | significant (p<0.05) decrease in bacterial titer | 2.29 ± 0.30 Log CFU/g of bone | significant decrease in bacterial titer | efficient prophylactic effect |  | 
2 |  |  | COc1c(N2CCNC(C)C2)c(F)cc2c(=O)c(C(=O)OCC(=O)NC(P(=O)(O)O)P(=O)(O)O)cn(C3CC3)c12 (stereo not drawn) [Compound 54, (1,1-Bisphosphonomethylcarbamoyl)methyl 7-(3-methylpiperazin-1-yl)-1-cyclopropyl-6-fluoro-1,4-dihydro-8-methoxy-4-oxoquinoline-3-carboxylate] |  |  |  | efficient prophylactic effect | significant (p-value ≦0.0002) decrease in bacterial titer; also recorded: nearly sterile bone | 2.96 ± 0.69 Log CFU/g of bone
